Measurements as given in patent publication US8795977B2, “Method for screening a potential modulator compound of a taste receptor” (Conopco, Inc., priority 2009, dated 2014).

Biological target: T1, T1R1/T1R3 umami receptor (Homo sapiens, UniProt Q7RTX0+Q7RTX1, C757R)
T1 construct: expressed in transfected cells; host or cells: HEK293 cells, transiently transfected (Lipofectamine 2000)
T1 sequence (Q7RTX1 21-841): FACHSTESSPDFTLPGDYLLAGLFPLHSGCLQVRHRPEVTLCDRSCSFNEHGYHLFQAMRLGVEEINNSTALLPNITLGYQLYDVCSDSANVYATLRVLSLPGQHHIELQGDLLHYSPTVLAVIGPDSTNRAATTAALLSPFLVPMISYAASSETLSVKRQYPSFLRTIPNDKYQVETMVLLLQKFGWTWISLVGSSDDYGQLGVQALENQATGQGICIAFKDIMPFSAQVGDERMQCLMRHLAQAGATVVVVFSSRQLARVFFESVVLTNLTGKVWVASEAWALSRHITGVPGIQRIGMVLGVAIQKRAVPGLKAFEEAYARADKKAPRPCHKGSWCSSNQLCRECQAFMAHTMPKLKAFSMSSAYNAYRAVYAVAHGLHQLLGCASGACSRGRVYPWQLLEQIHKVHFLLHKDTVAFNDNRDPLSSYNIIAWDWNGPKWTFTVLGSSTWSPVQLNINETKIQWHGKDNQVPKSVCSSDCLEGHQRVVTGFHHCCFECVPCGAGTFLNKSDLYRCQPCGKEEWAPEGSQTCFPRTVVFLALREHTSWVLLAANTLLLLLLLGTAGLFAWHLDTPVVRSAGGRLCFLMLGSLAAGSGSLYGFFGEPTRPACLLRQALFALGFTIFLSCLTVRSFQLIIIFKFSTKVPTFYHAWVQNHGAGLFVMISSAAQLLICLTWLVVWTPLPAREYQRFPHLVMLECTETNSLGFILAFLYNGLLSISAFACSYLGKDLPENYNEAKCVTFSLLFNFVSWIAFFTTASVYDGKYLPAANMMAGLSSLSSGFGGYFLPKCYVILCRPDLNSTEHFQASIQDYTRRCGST
T1 sequence (Q7RTX0 with tags, fused parts or gaps C757R): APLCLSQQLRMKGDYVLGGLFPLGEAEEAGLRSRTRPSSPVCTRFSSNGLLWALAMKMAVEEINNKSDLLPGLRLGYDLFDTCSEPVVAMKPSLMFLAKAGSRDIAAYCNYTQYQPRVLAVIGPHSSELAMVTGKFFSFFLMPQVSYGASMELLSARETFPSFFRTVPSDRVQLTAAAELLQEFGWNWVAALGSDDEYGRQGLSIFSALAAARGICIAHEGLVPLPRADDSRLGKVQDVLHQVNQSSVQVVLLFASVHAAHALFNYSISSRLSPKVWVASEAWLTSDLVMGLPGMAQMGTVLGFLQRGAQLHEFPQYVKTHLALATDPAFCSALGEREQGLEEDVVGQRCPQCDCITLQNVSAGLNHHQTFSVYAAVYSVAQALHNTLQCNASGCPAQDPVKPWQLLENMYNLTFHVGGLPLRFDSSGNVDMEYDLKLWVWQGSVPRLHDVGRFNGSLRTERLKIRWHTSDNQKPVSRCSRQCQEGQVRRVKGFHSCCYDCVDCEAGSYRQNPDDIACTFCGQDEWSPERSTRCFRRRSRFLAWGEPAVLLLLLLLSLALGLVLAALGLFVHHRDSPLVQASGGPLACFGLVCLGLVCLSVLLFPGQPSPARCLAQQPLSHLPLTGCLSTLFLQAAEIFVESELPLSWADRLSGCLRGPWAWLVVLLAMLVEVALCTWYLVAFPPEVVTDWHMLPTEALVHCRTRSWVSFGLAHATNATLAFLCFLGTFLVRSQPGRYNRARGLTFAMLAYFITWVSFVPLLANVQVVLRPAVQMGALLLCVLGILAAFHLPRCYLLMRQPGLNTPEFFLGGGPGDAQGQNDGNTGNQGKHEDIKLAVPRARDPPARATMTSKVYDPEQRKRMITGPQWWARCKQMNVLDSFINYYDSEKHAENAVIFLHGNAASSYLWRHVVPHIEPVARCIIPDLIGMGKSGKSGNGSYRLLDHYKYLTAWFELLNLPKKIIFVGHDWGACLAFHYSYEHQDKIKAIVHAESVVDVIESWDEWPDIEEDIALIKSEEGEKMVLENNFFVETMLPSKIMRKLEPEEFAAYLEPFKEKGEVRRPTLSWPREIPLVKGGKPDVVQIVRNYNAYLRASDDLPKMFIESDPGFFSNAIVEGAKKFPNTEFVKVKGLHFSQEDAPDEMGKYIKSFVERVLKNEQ
Assay: BRET assay (T1R1/T1R3-Rluc and GFP-2-β-arrestin-2 in HEK293 cells)
Type: cell-based
Design: key: +: A BRET signal above the values achieved for buffer alone was defined as umami receptor-specific
Settings: MSG 10 mM
Protocol: FIG. 2 Activation of the T1R1/T1R3 umami receptor expressed in HEK293-Gα15 cells as measured by BRET assays as described in Example 2. Test solutions (or buffer) as indicated and substrate were added to the cells. The BRET signals were determined as the ratio between readings taken at the acceptor wavelength (515 nm) divided by the signals determined for the donor (400 nm). To correct for background signal due to overlap of donor emission at the acceptor wavelength, the BRET ratio was determined in parallel for cells expressing the donor alone (T1R1/T1R3-Rluc). This BRET background value was subtracted from the BRET value obtained for the cells expressing both BRET partners (BRET=BRET ratio−background ratio). A BRET signal above the values achieved for buffer alone was defined as umami receptor-specific (see also table 2B).
The extracts or crude mixtures described below are examples for natural samples unsuitable for testing with a calcium-based receptor assay due to their high non-specific background signal. They are from different origin and are selected to illustrate a wide range of potential test samples. […] Calcium-Based Receptor Assay: Activation of the T1R1/T1R3 umami receptor expressed in HEK293-Gα15 cells has been measured by monitoring the release of intracellular calcium. […]

N[C@@H](CCC(=O)O)C(=O)[O-].[Na+] [MSG, Monosodium glutamate]
T1R1/T1R3 receptor-specific signal, BRET assay: +
